Experiments:
human 5-LOX = biological target: T1, human 5-LOX (Homo sapiens, UniProt P09917); assay: 5-LOX enzyme activity, fluorescence method (5-HPETE, H2DCFDA); type: biochemical; settings: read-out: 5-LO (IC50)
T1 construct: purchased Cayman 60402; host or cells: insect cells (lysate)
T1 sequence (P09917 1-674): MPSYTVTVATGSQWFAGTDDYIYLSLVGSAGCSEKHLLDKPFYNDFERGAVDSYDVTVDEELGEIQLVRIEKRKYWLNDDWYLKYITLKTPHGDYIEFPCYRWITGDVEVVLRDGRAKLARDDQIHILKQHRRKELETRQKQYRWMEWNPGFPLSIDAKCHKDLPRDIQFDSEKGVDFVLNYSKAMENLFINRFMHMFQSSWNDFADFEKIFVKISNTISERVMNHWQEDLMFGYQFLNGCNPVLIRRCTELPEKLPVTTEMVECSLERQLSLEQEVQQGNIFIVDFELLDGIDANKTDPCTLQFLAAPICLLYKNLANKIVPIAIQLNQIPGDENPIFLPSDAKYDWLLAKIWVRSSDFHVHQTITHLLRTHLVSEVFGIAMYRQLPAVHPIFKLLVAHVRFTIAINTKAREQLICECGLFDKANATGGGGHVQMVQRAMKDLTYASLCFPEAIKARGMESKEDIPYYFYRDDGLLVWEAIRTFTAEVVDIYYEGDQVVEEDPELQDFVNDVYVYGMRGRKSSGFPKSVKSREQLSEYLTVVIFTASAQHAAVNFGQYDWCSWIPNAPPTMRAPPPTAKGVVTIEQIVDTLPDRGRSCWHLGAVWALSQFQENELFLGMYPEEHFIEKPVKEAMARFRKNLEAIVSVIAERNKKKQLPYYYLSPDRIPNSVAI
Summary of the method: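 Compound (0.5 nM to 10 uM) pre-incubated 5 min with enzyme; reaction started with ATP (100 uM final) and arachidonic acid (3 uM final). All steps at room temperature, fluorescence read-out.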

[1] = system: Rat basophilic leukemia (RBL) cells; assay: LTB4 secretion assay in RBL (rat basophilic leukemia cells); type: cell-based; settings: Rattus norvegicus, RBL
Summary of the method: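 Cells seeded 2×10^4/well the day before, then pre-incubated 15 min at 37 °C in EMEM/0.5% FBS with compound (5 nM to 100 uM). Stimulation with 2.5 uM arachidonic acid plus 5 uM A23187 (final) for 10 min at 37 °C; LTB4 in supernatant quantified by EIA.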

IC50 (human 5-LOX) [µM] | EC50 [1] [µM] | SMILES
1 to 10 | > 20 | Nc1cnc2nc(N3CCCC3)n(CCOc3ccc(OC(F)(F)F)cc3)c2c1 [Compound 83]
< 1 | < 10 | Cn1c(NCc2ccc(Oc3ccc4cc(Cl)ccc4n3)cc2)nc2ccc(NC3COC3)cc21 [Compound 390]
< 1 | < 10 | Cn1c(NCc2ccc(Oc3ncc(-c4ccc(Cl)cc4)cn3)cc2)nc2ccc(N)cc21 [Compound 460]
< 1 | > 20 | CN(C)c1nc2ccc(NCc3ccc(C4(C(N)=O)CCOCC4)cc3)cc2[nH]1 [Compound 237]
< 1 | < 10 | CN1CCN(CCNc2ccc3nc(NCc4ccc(Oc5ccc(Cl)cn5)cc4)n(C)c3c2)CC1 [Compound 333]
< 1 | > 20 | COC(c1ccc(CNc2nc3ccc(NC4COC4)cc3[nH]2)cc1)c1ccccn1 (stereo not drawn) [Compound 189]
< 1 | < 10 | Nc1ccc2nc(NCc3ccc(Oc4ccc(Cl)cn4)cc3)n(C3COC3)c2c1 [Compound 261]
< 1 | < 10 | Cn1c(NCc2ccc(Oc3ncc(Cl)cn3)cc2)nc2ccc(NCCN3CCOCC3)cc21 [Compound 379]
< 1 | < 10 | CC(C)c1cc(CNc2nc3ccc(NC4COC4)cc3n2C)ccc1Oc1ncc(Cl)cn1 [Compound 396]
< 1 | < 10 | c1ccc(Oc2ccc(CNc3nc4cc(NC5CCC5)ccc4[nH]3)cc2)cc1 [Compound 96]
< 1 | < 10 | Cn1c(NCc2ccc(Oc3ccc(OC(F)(F)F)cc3)cc2)nc2ccc(NC3COC3)cc21 [Compound 293]
1 to 10 | 10 to 20 | CN(C)c1nc2cc(NC3COC3)ccc2n1CCOc1ccc(Cl)cc1 [Compound 41]
< 1 | < 10 | Cn1c(NCc2ccc(Nc3ncc(Cl)cn3)cc2)nc2ccc(N)cc21 [Compound 458]
< 1 | < 10 | Cn1c(NCc2ccc(OCc3ncco3)cc2)nc2ccc(N)cc21 [Compound 342]
< 1 | < 10 | Cn1nccc1-c1ccc(CNc2nc3cc(N)ccc3[nH]2)cc1 [Compound 200]
< 1 | < 10 | CCC(Nc1nc2cc(N)ccc2[nH]1)c1ccc(Oc2ccc(Cl)cc2)cc1 (stereo not drawn) [Compound 124]
< 1 | < 10 | Fc1ccc(CCNc2nc3cc(NC4COC4)ccc3[nH]2)cc1 [Compound 33]
< 1 | < 10 | Cn1c(NCc2ccc(Oc3ncc4c(Cl)cccc4n3)cc2)nc2ccc(N)cc21 [Compound 434]
< 1 | < 10 | Cn1c(NCc2ccc(Oc3ccc(Cl)cn3)cn2)nc2ccc(N)cc21 [Compound 299]
< 1 | < 10 | Cc1ccc(Oc2ccc(CNc3nc4ccc(NC5COC5)cc4n3C)cc2)nc1 [Compound 353]

IC50 (human 5-LOX) [µM] | EC50 [1] [µM] | SMILES
< 1 | < 10 | CN(C)c1nc2cc(NCc3ccc(-c4ncco4)cc3)ccc2[nH]1 [Compound 220]
< 1 | < 10 | CC(C)c1cc(CNc2nc3ccc(N)cc3n2C)ccc1Oc1ncc(Cl)cn1 [Compound 395]
< 1 | 10 to 20 | Nc1ccc2[nH]c(NCc3ccc(F)cc3)nc2c1 [Compound 28]
< 1 | 10 to 20 | CC(C)(C(O)c1ccc(CNc2nc3ccc(N)cc3[nH]2)cc1)C(F)(F)F (stereo not drawn) [Compound 198]
< 1 | > 20 | Nc1ccc2nc(NCC(=O)O)n(Cc3ccc(Oc4ccc(Cl)cc4)cc3)c2c1 [Compound 225]
< 1 | > 20 | Nc1ccc2nc(NCc3ccc(C(O)c4ccccn4)cc3)[nH]c2c1 (stereo not drawn) [Compound 139]
< 1 | < 10 | Cn1c(NCc2ccc(Oc3ccc4ccc(Cl)cc4n3)cc2)nc2ccc(NC3COC3)cc21 [Compound 420]
< 1 | < 10 | CCOC(=O)CNc1nc2ccc(N)cc2n1Cc1ccc(Oc2ccc(Cl)cc2)cc1 [Compound 207]
< 1 | < 10 | Cc1cc(Nc2ccc3nc(NCc4ccc(Oc5ncc(-c6ccc(Cl)cc6)cn5)cc4)n(C)c3c2)n[nH]1 [Compound 467]
< 1 | < 10 | Cn1c(NCc2ccc(Oc3cnc4cc(Cl)ccc4n3)cc2)nc2ccc(NC3COC3)cc21 [Compound 427]
> 10 | < 10 | CCC(Nc1nc2ccc(Nc3cc(C(F)(F)F)n(C)n3)cc2n1C)c1ccc(Oc2ncc(C(F)(F)F)cn2)cc1 (stereo not drawn) [Compound 520]
< 1 | < 10 | Cn1c(NCc2ccc(Oc3ccc(Cl)cn3)cc2)nc2ccc(NC3CNC3)cc21 [Compound 401]
1 to 10 | > 20 | Cn1c(NCc2ccc(Oc3ncc(Cl)cn3)cc2)nc2ccc(NC3C[S+]([O-])C3)cc21 (stereo not drawn) [Compound 386]
< 1 | < 10 | Nc1ccc2nc(N)n(Cc3ccc(Oc4nc5ccccc5o4)cc3)c2c1 [Compound 246]
< 1 | < 10 | Cn1c(NCc2ccc(Oc3cn4ccc(Cl)cc4n3)cc2)nc2ccc(N)cc21 [Compound 442]
1 to 10 | < 10 | Cn1c(NC2(c3ccc(Oc4ncc(Cl)cn4)cc3)CC2)nc2ccc(N)cc21 [Compound 472]
< 1 | > 20 | Cn1c(N(CCO)Cc2ccc(Oc3ccc(Cl)cn3)cc2)nc2ccc(NC3COC3)cc21 [Compound 318]
< 1 | < 10 | CN(C)c1nc2ccc(NCc3ccc(N(CC(N)=O)c4ccc(F)cc4)cc3)cc2[nH]1 [Compound 212]
< 1 | < 10 | Clc1ccc(OC(CNc2nc3ccc(NC4COC4)cc3[nH]2)c2ccccc2)cc1 (stereo not drawn) [Compound 180]
1 to 10 | 10 to 20 | Nc1ccc2c(c1)nc(N1CCCC1)n2CCc1ccc(F)cc1 [Compound 50]

IC50 (human 5-LOX) [µM] | EC50 [1] [µM] | SMILES
< 1 | < 10 | CC(c1ccc(Oc2ccc(Cl)cn2)cc1)n1c(N)nc2ccc(N)cc21 (stereo not drawn) [Compound 247]
< 1 | > 20 | Cn1ccnc1C(=O)c1ccc(CNc2nc3ccc(N)cc3[nH]2)cc1 [Compound 173]
< 1 | 10 to 20 | CC(Cc1ccc(Cl)cc1Cl)Nc1nc2cc(N)ccc2n1Cc1ccccc1 (stereo not drawn) [Compound 144]
< 1 | > 20 | Cc1cnc(Oc2ccc(CNc3nc4ccc(N)cc4n3C)cc2)nc1 [Compound 348]
< 1 | 10 to 20 | O=S(=O)(c1ccc(Cl)cc1)c1ccc(CNc2nc3cc(NC4COC4)ccc3[nH]2)cc1 [Compound 133]
< 1 | < 10 | Cn1c(NCc2ccc(Oc3nc4cc(Cl)ccc4o3)cc2)nc2ccc(NC3COC3)cc21 [Compound 403]
< 1 | 10 to 20 | FC(F)(F)Oc1ccc(OC2CCN(c3ccc4nc(NCCCN5CCOCC5)[nH]c4c3)C2)cc1 (stereo not drawn) [Compound 142]
< 1 | < 10 | Cn1c(NCc2ccc(Oc3ccc4cc(Cl)ccc4n3)cc2)nc2ccc(N)cc21 [Compound 389]
< 1 | < 10 | Cn1c(NCc2ccc(Oc3ncc(Br)cn3)cc2)nc2ccc(N)cc21 [Compound 361]
< 1 | < 10 | COC(=O)c1ccc(CNc2ccc3nc(N(C)C)[nH]c3c2)cc1 [Compound 179]
< 1 | < 10 | CN(C)c1nc2ccc(N3CCC(C(=O)c4ccc(Cl)cn4)C3)cc2[nH]1 (stereo not drawn) [Compound 230]
< 1 | < 10 | CC(CC(F)(F)F)Nc1ccc2[nH]c(NCc3ccc(Oc4ccc(Cl)cc4)cc3)nc2c1 (stereo not drawn) [Compound 134]
< 1 | > 20 | Cn1c(NCc2ccc(Oc3ccc(Cl)cn3)nc2)nc2ccc(N)cc21 [Compound 308]
< 1 | < 10 | Cn1c(NCc2ccc(Oc3cnc(Cl)cn3)cc2)nc2ccc(N)cc21 [Compound 295]
< 1 | 10 to 20 | Cn1c(NCc2ccc(Oc3ncc(Cl)cc3Cl)cc2)nc2ccc(N)cc21 [Compound 321]
< 1 | < 10 | Cn1c(NCc2ccc(Oc3ccc(Cl)cn3)cc2)nc2ccc(NCCO)cc21 [Compound 313]
< 1 | < 10 | Cn1c(NCc2ccc(Oc3ccc(OC(F)(F)F)cc3)cc2)nc2ccc(N)cc21 [Compound 292]
< 1 | < 10 | N#CCCNc1nc2ccc(N)cc2n1Cc1ccc(Oc2ccc(Cl)cc2)cc1 [Compound 252]
< 1 | < 10 | CCC(Nc1nc2ccc(NC3COC3)cc2n1C)c1ccc(Oc2ccc(C(F)(F)F)cn2)cc1 (stereo not drawn) [Compound 549]
< 1 | 10 to 20 | Nc1ccc2[nH]c(NCc3ccc(N4CCOC(COc5ccc(OC(F)(F)F)cc5)C4)nc3)nc2c1 (stereo not drawn) [Compound 222]
